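Five concentrations, 48 hours, 96-well plates. Here, GI50 denotes the concentration required for 50% inhibition of growth. TGI marks complete inhibition of growth.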 Some results are limits rather than exact numbers.

What all share (experiment): inhibition of tumour cell growth, NCI panel, 48 h
Assay [1] concerns SF-539 CNS.
Assay [2] has as its system UACC-62 melanoma.
The test system of assay [3] is UACC-257 melanoma.
In assay [4] the test system is SN12C renal.
For assay [5], the system named is KM12 colon.
For assay [6], the system named is A498 renal.
For assay [7], the system named is NCI-H226 lung.
Assay [8] has as its system RXF 393 renal.
In assay [9] the test system is HL-60(TB) leukemia.
In assay [10] the test system is MALME-3M melanoma.

As for `O=C(NCc1cn(Cc2cccc(Oc3ccccc3)c2)nn1)c1cccnc1Nc1ccc(F)cc1`, the GI50 in assay [1] is 15.1 µM; in [2], 6.51 µM; in assay [3] it was 6.87 µM; in [4] it was 52.6 µM; in [5], 5.61 µM; in assay [6], 13.7 µM. The GI50 in assay [7] was 38.6 µM; in assay [8], 5.69 µM; in [9], > 100 µM; in [10] it was 15.1 µM. Moreover, the TGI in [1] was > 100 µM; in assay [2], > 100 µM; in assay [3] it was > 100 µM; in assay [4], > 100 µM; in assay [5] it was > 100 µM; in assay [6] it was 95.1 µM. The TGI in assay [7] was > 100 µM; in assay [8], 42 µM; in assay [9] it was > 100 µM; in assay [10] it was > 100 µM.
As to `COC(=O)N[C@H]1CCc2cc(OC)c(OC)c(OC)c2-c2ccc(SC)c(=O)cc21`, the GI50 in assay [1] was < 0.01 µM; in assay [2] it was < 0.01 µM; in assay [3], 50.7 µM; in [4], < 0.01 µM; in assay [5], < 0.01 µM; in assay [6] it was < 0.01 µM. Moreover, the GI50 in [7] is < 0.01 µM; in [8], < 0.01 µM; in [9], < 0.01 µM; in assay [10], < 0.012 µM. The TGI is > 100 µM in assay [2]; > 100 µM in [3]; > 100 µM in [4]; > 100 µM in assay [5]; < 0.0255 µM in assay [6]; > 100 µM in [8]. Besides, the TGI in assay [10] was > 100 µM.
Take `CC(=O)/C(=C\c1ccc(Cl)cc1)c1ccccc1`: the GI50 in assay [2] was 0.0473 µM; in assay [4], 0.541 µM; in assay [5], 0.054 µM; in [6], 0.0309 µM; in assay [7] it was 2.3 µM; in assay [8] it was 0.0579 µM. Moreover, the values for the GI50 in [9] and in [10] were 0.0307 µM and 43.2 µM, respectively. For the same compound, the TGI was > 93.8 µM in assay [2]; > 100 µM in assay [4]; > 100 µM in [5]; 0.378 µM in [6]; > 90.1 µM in [7]; 0.117 µM in assay [9]. Moreover, the TGI in [10] was > 100 µM.
`CCOc1ccc(N(C)c2ccc(/C=C/C3=[N+](C)c4ccccc4C3(C)C)cc2)cc1`: the GI50 was 0.771 µM in [1]; 0.444 µM in [2]; 0.188 µM in assay [3]; 0.309 µM in [4]; 0.219 µM in assay [5]; 0.189 µM in assay [6]. In addition, the GI50 in assay [7] is 0.369 µM; in assay [8], 0.471 µM; in [9], 0.059 µM; in [10], 0.184 µM. Further, the TGI in [1] stood at 2.2 µM; in [2], 2.16 µM; in assay [3], 0.861 µM; in assay [4], 1.52 µM; in [5] it was 1.05 µM; in assay [6], 10.2 µM. Further, the TGI worked out at 2.18 µM in [7], 1.95 µM in assay [8], 0.257 µM in [9] and 0.848 µM in assay [10].
For `O=C(CCc1nnc2s/c(=C\c3ccc([N+](=O)[O-])cc3)c(=O)n12)Nc1ccc(Cl)c(Cl)c1`, the TGI in [1] was 32.2 µM; in assay [2] it was 78.8 µM; in assay [3], > 100 µM; in assay [4] it was 63.9 µM; in assay [5], 31.2 µM; in assay [6], > 100 µM. Further, the TGI in assay [7] is 37 µM; in assay [8] it was 34.6 µM; in assay [9], 44.3 µM; in [10], 98 µM.
For `CN1C(=O)C(c2c[nH]c3ccccc23)=C(c2c[nH]c3ccccc23)C1=O`, the GI50 was 6.87 µM in assay [1]; 3.07 µM in [2]; 7.65 µM in assay [3]; 7.75 µM in assay [4]; 5.66 µM in assay [5]; 3.55 µM in assay [6]. The GI50 in assay [7] is 5.96 µM; in assay [8], 4.41 µM; in assay [9], 6.37 µM; in [10] it was 7.44 µM. The TGI in assay [1] was > 25 µM; in assay [2], 17.3 µM; in assay [3], 24.8 µM; in assay [4], > 25 µM; in [5] it was > 21.3 µM; in [6], 17.2 µM. The TGI in assay [7] was > 19.4 µM; in assay [8], 12.8 µM; in assay [9] it was 18.1 µM; in assay [10] it was > 20.8 µM.
`Cn1cc(C2NC(=O)c3ccccc3N2)c2ccccc21` (stereo not given): the TGI was 6.87 µM in assay [1]; > 100 µM in assay [3]; > 100 µM in [4]; 26.9 µM in assay [5]; > 100 µM in assay [6]; 3.59 µM in [7]. Further, the TGI in assay [8] is 0.704 µM; in [9], 0.485 µM; in assay [10], > 29.7 µM.
With `Cc1cc(N(CCC#N)CCC#N)ccc1/C=C(\NC(=O)/C=C/c1ccccc1)C(=O)N=[N+]=[N-]`, the TGI in assay [1], in assay [2], in [3], in assay [4], in [6] and in [7] was > 100 µM throughout. The TGI in [8] is 98.5 µM; in assay [9], > 100 µM; in [10], > 100 µM.
As to `Cn1ncnc1[C@@H]1c2n[nH]c(=O)c3cc(F)cc(c23)N[C@H]1c1ccc(F)cc1`, the GI50 in assay [1], in [2], in assay [4], in assay [5], in assay [6] and in assay [7] was > 100 µM in each case. Moreover, the GI50 in [8], in assay [9] and in assay [10] was > 100 µM in each case. Further, the TGI in assay [1], in assay [2], in [4], in assay [5], in assay [6] and in assay [7] was > 100 µM each time. In addition, the TGI in [8], in assay [9] and in assay [10] was > 100 µM throughout.
For `COC(=O)C(=O)C(C#N)c1nc2ccccc2s1` (stereo not given), the TGI in assay [1], in assay [2], in assay [3], in assay [4], in [6] and in assay [7] was > 100 µM throughout. The TGI in [8], in [9] and in [10] was > 100 µM each time.
As for `COc1ccc(C2=NN(C(N)=S)C(c3ccc4c(c3)OCO4)C2)cc1` (stereo not given), the GI50 in [1] was 2.12 µM; in [2] it was 3.79 µM; in [3], 3.96 µM; in [4], 3.37 µM; in assay [5], 2.27 µM; in assay [6], 2.24 µM. For the same compound, the GI50 is 2.49 µM in assay [7], 4.28 µM in [8] and 3.62 µM in [10]. For the same compound, the TGI was 5.21 µM in [1]; 21.1 µM in assay [2]; 68.5 µM in [3]; > 100 µM in assay [4]; 5.19 µM in assay [5]; 9.07 µM in assay [6]. For the same compound, the TGI was 6.84 µM in [7], > 100 µM in assay [8] and 43.9 µM in assay [10].
As to `O=c1c2ccccc2nc(-c2cccc([N+](=O)[O-])c2)n1O`, the TGI in [1] was > 100 µM; in [2], > 100 µM; in assay [3] it was > 100 µM; in assay [4], > 100 µM; in assay [5] it was > 100 µM; in assay [6], > 85.1 µM. Further, the TGI in assay [7], in assay [8] and in [10] was > 100 µM throughout.
For the compound `C=C(CO)C(=O)OC1CC(=C)C2CC(O)C(C)C2C2OC(=O)C(=C)C12` (stereo not given), the TGI in assay [1] is 37.8 µM; in assay [2], 35.3 µM; in assay [3] it was 32.7 µM; in [4], 32.7 µM; in [5], 33.6 µM; in assay [6], > 100 µM. Also, the TGI in [8] was determined as 36.4 µM; in assay [9] it was 62.5 µM; in [10], 41.7 µM.
`CC(C)(CN1CCCCC1)C(=O)/C=C/c1ccccc1`: the TGI was found to be 22.9 µM in [1]; 53.2 µM in [2]; 46.8 µM in assay [3]; 42.3 µM in [4]; 28.9 µM in assay [5]; 57.8 µM in assay [6]. The TGI was found to be 69.8 µM in assay [7], 24.7 µM in assay [8] and 30.3 µM in [10].
Regarding `NS(=O)(=O)c1ccc(N(/C=C/C(=O)C(F)(F)F)CC(=O)c2ccc(F)cc2)cc1`, the GI50 in assay [1] is 20.9 µM; in [2], 17.6 µM; in assay [3], 22 µM; in assay [4], 19.4 µM; in [5] it was 24.5 µM; in [6], 0.0281 µM. Besides, the GI50 was 22.6 µM in assay [7], 44 µM in assay [8] and 43.1 µM in assay [10]. The TGI in assay [1] was found to be 43 µM; in [2], 31.9 µM; in [3], 72.8 µM; in [4] it was 45.3 µM; in [5], 57.9 µM; in assay [6], 0.54 µM. The TGI in assay [7] is 40.9 µM; in assay [8], > 100 µM; in assay [10], 78.9 µM.
